Here are results for 17 compounds from US11753410B2, “Hormone receptor modulators for treating metabolic mutagenic and fibrotic conditions and disorders” (priority 2017, dated 2023).

Test [1] deals with T1, ligand binding domain of human FXR (Homo sapiens, UniProt Q96RI1).
T1 construct: purchased Thermofisher (LanthaScreen) PV4833
T1 sequence (Q96RI1 262-486 limits assumed): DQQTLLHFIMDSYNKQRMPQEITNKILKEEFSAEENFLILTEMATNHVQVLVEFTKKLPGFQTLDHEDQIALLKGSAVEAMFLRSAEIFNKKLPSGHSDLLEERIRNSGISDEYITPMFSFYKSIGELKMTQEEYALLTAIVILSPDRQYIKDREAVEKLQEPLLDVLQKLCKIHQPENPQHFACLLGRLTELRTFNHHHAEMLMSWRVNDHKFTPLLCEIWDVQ
Put plainly: biochemical. The conditions noted are these: for EC50: −log EC50, concentration required to produce 50% activation, FRET 520 nm/495 nm, 1 hour at room temperature, read-out: Ligand Binding pEC50 (converted); for Emax: extent of activation relative to GW4064, read-out: Ligand Binding % Efficacy. As to the method:
The affinity of FXR ligands for the ligand binding domain of FXR was determined using a commercially available human FXR ligand binding assay (LanthaScreen, Thermofisher Cat #PV4833). […] Binding of FXR ligands to the FXR ligand binding domain promotes binding of the fluorescein-labelled SRC2-2 peptide. This causes a FRET signal between the terbium-labelled anti-GST antibody and the fluorescein-labelled SRC peptide which are both bound to the FXR ligand binding domain.
Test compounds are dissolved in DMSO and a 3-fold serial dilution series is generated, then further diluted into assay buffer. The compounds are mixed with 5 nM GST-tagged FXR ligand binding domain, 5 nM Tb-labelled anti-GST antibody and 500 nM fluorescein-labelled SRC2-2 peptide in a pH7.4 buffer. The reaction is incubated at room temperature for 1 hour, then the FRET signal is measured as the ratio of the 520 nm/495 nm emission following excitation at 340 nm. The change in FRET signal is plotted against the test article concentration and fit to a 3-parameter logistical equation.

Test [2] deals with T2, human Farnesoid X receptor ligand-binding domain/Gal4 DNA binding domain chimera (Homo sapiens, UniProt Q96RI1).
T2 construct: host or cells: FXR-UAS-bla HEK 293T (CellSensor UAS-bla HEK 293T)
T2 sequence (Q96RI1 262-486 limits assumed): T1 sequence (Q96RI1 262-486 limits assumed)
Put plainly: Cell-based assay of FXR activation (FXR-UAS-bla HEK 293T beta-lactamase reporter). The conditions noted are these: for Emax: HEK-293T, read-out: Cellular % Efficacy. As to the method: FXR activation was measured using a cell line and procedure obtained from Life Technologies (Cat #K1691). […] Activation of FXR by bound ligands results in transcriptional activation of the beta-lactamase reporter gene, which is detected via assay of beta-lactamase activity.
Cells are harvested and diluted into assay medium containing phenol red-free DMEM supplemented with 2% Charcoal-stripped FBS, pyruvate, non-essential amino acids. Cells are then transferred to a 384 well assay plate. Test compounds are dissolved in DMSO and a 3-fold serial dilution series is generated, then further diluted into assay medium. Compounds in assay medium are added to cells in the 384 well plate and allowed to incubate 16 h at 37 C in the presence of 5% CO2.
A FRET-based […] (CCF4) is loaded into cells as its acetomethoxy ester. Intracellular esterases liberate free CCF4, a cephalosporin core linking 7-hydroxycoumarin to fluorescein. In the presence of beta-lactamase activity produced in the presence of FXR agonists, cleavage of CCF4 spatially separates the two dyes and disrupts FRET, so that exciting the coumarin at 409 nm now produces a blue fluorescence signal at 447 nm. The change in FRET signal is plotted against the test compound concentration and fit to a 3-parameter logistical equation.

Where only a bound is given, the exact number is not on record here.

On to `O=C(O)CCc1ccc(N2C[C@@H]3C[C@H]2C[C@H]3OCc2c(-c3c(Cl)cccc3Cl)cnn2C2CC2)cc1` [Compound I-43, 3-{4-[(1S,4S,5R)-5-{[1-cyclopropyl-4-(2,6-dichlorophenyl)-1H-pyrazol-5-yl]methoxy}-2-azabicyclo[2.2.1]heptan-2-yl]phenyl}propanoic acid], for which the EC50 was less than 316 nM in test [1] and less than 31.6 nM in test [2].

For `O=C(O)c1cc(F)c2nc(N3C[C@@H]4C[C@H]3C[C@H]4OCc3c(C4CC4)cnn3-c3c(Cl)cccc3Cl)sc2c1` [Compound I-30, 2-[(1S,4S,5R)-5-{[4-cyclopropyl-1-(2,6-dichlorophenyl)-1H-pyrazol-5-yl]methoxy}-2-azabicyclo[2.2.1]heptan-2-yl]-4-fluoro-1,3-benzothiazole-6-carboxylic acid], in test [1], the Emax worked out at 151% and the EC50 is 15.8 nM. Moreover, in test [2], the EC50 was 1.58 nM and the Emax amounted to 106%.

As for `O=C(O)c1cc(C2CCOCC2)c2nc(N3C[C@@H]4C[C@H]3C[C@H]4OCc3c(-c4c(Cl)cccc4Cl)cnn3C3CC3)sc2c1` [Compound I-49, 2-[(1S,4S,5R)-5-{[1-cyclopropyl-4-(2,6-dichlorophenyl)-1H-pyrazol-5-yl]methoxy}-2-azabicyclo[2.2.1]heptan-2-yl]-4-(oxan-4-yl)-1,3-benzothiazole-6-carboxylic acid], the Emax was found to be 82% in test [1] and 105% in test [2]. For the same compound, the EC50 in test [1] was 100 nM; in test [2], less than 63.1 nM.

With `O=C(NS(=O)(=O)C1CCOC1)c1ccc(N2C[C@@H]3C[C@H]2C[C@H]3OCc2c(C3CC3)cnn2-c2c(Cl)cccc2Cl)cc1` (stereo partly drawn) [Compound I-23, 4-((1S,4S,5R)-5-((4-cyclopropyl-1-(2,6-dichlorophenyl)-1H-pyrazol-5-yl)methoxy)-2-azabicyclo[2.2.1]heptan-2-yl)-N-((tetrahydrofuran-3-yl)sulfonyl)benzamide], in test [1], the Emax was found to be 164% and the EC50 is 3.98 nM. Moreover, in test [2], the EC50 was 2.51 nM and the Emax was found to be 111%.

Take `O=C(O)CCc1ccc(N2C[C@@H]3C[C@H]2C[C@H]3OCc2c(C3CC3)nnn2-c2c(Cl)cccc2Cl)c(F)c1` [Compound I-54, 3-{4-[(1S,4S,5R)-5-{[4-cyclopropyl-1-(2,6-dichlorophenyl)-1H-1,2,3-triazol-5-yl]methoxy}-2-azabicyclo[2.2.1]heptan-2-yl]-3-fluorophenyl}propanoic acid]: in test [1], the Emax stood at 152% and the EC50 was 20 nM. In test [2], the EC50 is 12.6 nM and the Emax was 100%.

In the case of `O=C(O)c1cc(OC(F)(F)F)c2nc(N3C[C@@H]4C[C@H]3C[C@H]4OCc3c(-c4c(Cl)cccc4Cl)nnn3C3CC3)sc2c1` [Compound I-63, 2-[(1S,4S,5R)-5-{[1-cyclopropyl-4-(2,6-dichlorophenyl)-1H-1,2,3-triazol-5-yl]methoxy}-2-azabicyclo[2.2.1]heptan-2-yl]-4-(trifluoromethoxy)-1,3-benzothiazole-6-carboxylic acid], in test [1], the Emax turned out to be 180% and the EC50 is 12.6 nM. Further, in test [2], the EC50 is 12.6 nM and the Emax was 103%.

Take `O=C(O)c1cc(OC2CC2)c2nc(N3C[C@@H]4C[C@H]3C[C@H]4OCc3c(C4CC4)cnn3-c3c(Cl)cccc3Cl)sc2c1` [Compound I-31, 4-cyclopropoxy-2-[(1S,4S,5R)-5-{[4-cyclopropyl-1-(2,6-dichlorophenyl)-1H-pyrazol-5-yl]methoxy}-2-azabicyclo[2.2.1]heptan-2-yl]-1,3-benzothiazole-6-carboxylic acid]: in test [1], the Emax worked out at 116% and the EC50 was 1.58 nM. Further, in test [2], the EC50 is 0.2 nM and the Emax was 110%.

With `O=C(NS(=O)(=O)C1CCOCC1)c1ccc(N2C[C@@H]3C[C@H]2C[C@H]3OCc2c(C3CC3)cnn2-c2c(Cl)cccc2Cl)cc1` [Compound I-20, 4-[(1S,4S,5R)-5-{[4-cyclopropyl-1-(2,6-dichlorophenyl)-1H-pyrazol-5-yl]methoxy}-2-azabicyclo[2.2.1]heptan-2-yl]-N-(oxane-4-sulfonyl)benzamide], the Emax is 147% in test [1] and 102% in test [2]. Further, the EC50 in test [1] was 3.16 nM; in test [2] it was 0.794 nM.

As for `O=C(O)c1ccc(N2C[C@@H]3C[C@H]2C[C@H]3OCc2c(C3CC3)cnn2-c2c(Cl)cccc2Cl)nc1` [Compound I-4, 6-[(1S,4S,5R)-5-{[4-cyclopropyl-1-(2,6-dichlorophenyl)-1H-pyrazol-5-yl]methoxy}-2-azabicyclo[2.2.1]heptan-2-yl]pyridine-3-carboxylic acid], in test [1], the Emax is 132% and the EC50 was 100 nM.

Turning to `O=C(NS(=O)(=O)C1CC1)c1ccc(N2C[C@@H]3C[C@H]2C[C@H]3OCc2c(C3CC3)cnn2-c2c(Cl)cccc2Cl)cc1` [Compound I-22, 4-((1S,4S,5R)-5-((4-cyclopropyl-1-(2,6-dichlorophenyl)-1H-pyrazol-5-yl)methoxy)-2-azabicyclo[2.2.1]heptan-2-yl)-N-(cyclopropylsulfonyl)benzamide], in test [1], the Emax was found to be 166% and the EC50 is 3.98 nM.

Regarding `CC[C@@H]1[C@@H]2C[C@@H](C[C@H]2OCc2c(C3CC3)cnn2-c2c(Cl)cccc2Cl)N1c1ccc(C(=O)O)c(F)c1` [Compound I-18, 4-[(1S,3R,4S,5R)-5-{[4-cyclopropyl-1-(2,6-dichlorophenyl)-1H-pyrazol-5-yl]methoxy}-3-ethyl-2-azabicyclo[2.2.1]heptan-2-yl]-2-fluorobenzoic acid], the Emax in test [1] came out at 47%.

Take `O=C(O)c1ccc(N2C[C@@H]3C[C@H]2C[C@H]3OCc2c(C3CC3)cnn2-c2c(Cl)cccc2Cl)cn1` [Compound I-5, 5-[(1S,4S,5R)-5-{[4-cyclopropyl-1-(2,6-dichlorophenyl)-1H-pyrazol-5-yl]methoxy}-2-azabicyclo[2.2.1]heptan-2-yl]pyridine-2-carboxylic acid]: in test [1], the Emax is 119% and the EC50 was 251 nM.

Regarding `O=C(NS(=O)(=O)C1CCOCC1)c1ccc(N2C[C@@H]3C[C@H]2C[C@H]3OCc2c(C3CC3)cnn2-c2c(Cl)cccc2Cl)cn1` [Compound I-25, 5-((1S,4S,5R)-5-((4-cyclopropyl-1-(2,6-dichlorophenyl)-1H-pyrazol-5-yl)methoxy)-2-azabicyclo[2.2.1]heptan-2-yl)-N-((tetrahydro-2H-pyran-4-yl)sulfonyl)picolinamide], in test [1], the Emax came to 130% and the EC50 is 25.1 nM.

For `CC[C@H]1[C@H]2C[C@H](C[C@@H]2OCc2c(C3CC3)cnn2-c2c(Cl)cccc2Cl)N1c1ccc(C(=O)O)c(F)c1` [Compound I-19, 4-[(1R,3S,4R,5S)-5-{[4-cyclopropyl-1-(2,6-dichlorophenyl)-1H-pyrazol-5-yl]methoxy}-3-ethyl-2-azabicyclo[2.2.1]heptan-2-yl]-2-fluorobenzoic acid], the Emax in test [1] was found to be 30%.

With `CC[C@H]1[C@H]2C[C@H](C[C@@H]2OCc2c(C3CC3)cnn2-c2c(Cl)cccc2Cl)N1c1ccc(C(=O)O)cc1` [Compound I-17, 4-[(1R,3S,4R,5S)-5-{[4-cyclopropyl-1-(2,6-dichlorophenyl)-1H-pyrazol-5-yl]methoxy}-3-ethyl-2-azabicyclo[2.2.1]heptan-2-yl]benzoic acid], the Emax in test [1] was 15%.

Take `C[C@@H]1[C@@H]2C[C@@H](C[C@H]2OCc2c(C3CC3)cnn2-c2c(Cl)cccc2Cl)N1c1ccc(C(=O)O)c(F)c1` [Compound I-15, 4-[(1S,3R,4S,5R)-5-{[4-cyclopropyl-1-(2,6-dichlorophenyl)-1H-pyrazol-5-yl]methoxy}-3-methyl-2-azabicyclo[2.2.1]heptan-2-yl]-2-fluorobenzoic acid]: in test [1], the Emax came to 44% and the EC50 was 1000 nM.

With `O=C(O)c1ccc(N2C(=O)[C@@H]3C[C@H]2C[C@H]3OCc2c(C3CC3)cnn2-c2c(Cl)cccc2Cl)cc1` [Compound I-11, 4-[(1S,4R,5R)-5-{[4-cyclopropyl-1-(2,6-dichlorophenyl)-1H-pyrazol-5-yl]methoxy}-3-oxo-2-azabicyclo[2.2.1]heptan-2-yl]benzoic acid], in test [1], the Emax was found to be 152% and the EC50 was 39.8 nM.
